For 5 molecules, molar enthalpy results are on record in the NIST ThermoML archive (doi:10.1016/j.jct.2007.06.020).

± gives the expanded uncertainty stated by the source.

A short description of this series: molar enthalpy of vaporization or sublimation. Conditions: 298.15 K; Liquid; Calvet microcalorimetry.
Regarding `Cc1ccsc1C#N` [3-methylthiophene-2-carbonitrile], the molar enthalpy was determined as 13 ± 0.574 kcal/mol.

Take `N#CCc1ccsc1` [3-thiopheneacetonitrile]: the molar enthalpy came out at 14.6 ± 0.621 kcal/mol.

For `N#Cc1ccsc1` [3-thiophenecarbonitrile], the molar enthalpy was 12.3 ± 0.908 kcal/mol.

For the molecule `N#CCc1cccs1` [2-thiopheneacetonitrile], the molar enthalpy was determined as 14.5 ± 0.621 kcal/mol.

For `N#Cc1cccs1` [2-cyanothiophene], the molar enthalpy amounted to 11.8 ± 0.526 kcal/mol.
